The test system of assay [1] is ML-2. Kind of assay: Apoptosis (Annexin-V flow cytometry). The assay is classed as cell-based. As to conditions: antibody 1 μg/ml, 22 hours, early and late apoptosis. As to the method:
(§1) One ml of target cells (5×10^5 cells/ml) were added to the well of a 24-well plate, together with test antibody (1 μg/ml) in the presence or absence of rabbit anti-huIgG (10 μg/ml; F(ab′)2 Fcγ-specific). Cells were incubated for 22 hours (5% CO2, 37° C.). Thereafter, cells were harvested (1000 rpm, 5 min) and washed twice in PBS (1000 rpm, 5 min). Cells were resuspended in 250 μl binding buffer (Annexin-V Apoptosis kit, BD Biosciences) according to manufacturer's instruction, followed by flow cytometry analysis.
(§2) Apoptosis was measured by both early and late apoptosis (Q2 and Q3 in FIG. 1A and FIG. 1B).
Background: Flow cytometry measures light scatter and fluorescence of single cells or particles in a stream.

For assay [2], the system named is MOLM-13. Briefly: Apoptosis (Annexin-V flow cytometry). As to conditions: antibody 1 μg/ml, 22 hours, early and late apoptosis. The assay is classed as cell-based. Here is the method:
as §1, §2

Assay [3] concerns MOLM-16. Kind of assay: Apoptosis (Annexin-V flow cytometry). The assay is classed as cell-based. As to conditions: antibody 1 μg/ml, 22 hours, early and late apoptosis. As to the method: as §1, §2
The test system of assay [4] is MV-4-11. Briefly: Apoptosis (Annexin-V flow cytometry). The assay is classed as cell-based. The note with it: antibody 1 μg/ml, 22 hours, early and late apoptosis. Here is the method:
as §1, §2

Assay [5] deals with NB-4 AML cell line. Kind of assay: Apoptosis (Annexin-V flow cytometry). The assay is classed as cell-based. As to conditions: for daratumumab-induced apoptosis: NB-4 cell line. Here is the method:
as §1, §2

Assay [6] relates to THP-1. Briefly: Apoptosis (Annexin-V flow cytometry). The assay is classed as cell-based. As to conditions: antibody 1 μg/ml, 22 hours, early and late apoptosis. Here is the method:
as §1, §2

Assay [7] relates to ML-2. Briefly: CDC (cell lysis, CellTiter-Glo). The assay is classed as cell-based. As to conditions: human serum 10%. Here is the method: (§3) Target cells were harvested and adjusted to a concentration of 80×10^4 cells/ml. Twelve μl of target cells were added to wells of a 96-well plate, and serial dilution of antibodies added onto the cells. The wells were incubated for 15 minutes, after which human serum high in complement was added at a final concentration of 10%. Reaction mixture was incubated for 21/2 hours at 37° C., and cell lysis was measured using the CellTiter-Glo® assay (Promega).
(ATP-based viability assays read luminescence as a measure of living cells.)

Assay [8] concerns MOLM-13. Briefly: CDC (cell lysis, CellTiter-Glo). The assay is classed as cell-based. The note with it: human serum 10%. Here is the method:
as §3

Assay [9] has as its system MOLM-16. Kind of assay: CDC (cell lysis, CellTiter-Glo). The assay is classed as cell-based. The note with it: human serum 10%. As to the method: as §3
The subject of assay [10] is MV-4-11. Briefly: CDC (cell lysis, CellTiter-Glo). As to conditions: human serum 10%. The assay is classed as cell-based. As to the method:
as §3

The subject of assay [11] is NB4. Briefly: CDC (cell lysis, CellTiter-Glo). The assay is classed as cell-based. As to conditions: human serum 10%. As to the method: as §3
Assay [12] concerns THP-1. Kind of assay: CDC (cell lysis, CellTiter-Glo). The note with it: human serum 10%. The assay is classed as cell-based. Here is the method:
as §3

Assay [13] has as its system ML-2. Kind of assay: In vitro ADCC with PBMC effector cells. The assay is classed as cell-based. The note with it: PBMC effector cells at ratio 50:1, 6 hours. Here is the method: (§4) In vitro ADCC assays were performed using AML tumor cell lines and Peripheral Blood Mononuclear Cells (PBMC) as effector cells at a ratio of 50:1. One hundred μl of target (tumor) cells (1×10^4 cells) were added to wells of 96-well U-bottom plates. An additional 100 μl was added with or without antibody, and the plates were incubated for 30 minutes at room temperature (RT) before adding effector cells (PBMC). Seventy five μl of PBMCs at concentration 6.66×10^6 cells/ml was added to the wells of the plates, and the plates were incubated at 37° C. for 6 hours. Plates were centrifuged at 250 g for 4 minutes, 50 μl of supernatant removed per well and cell lysis was measured using the CellTiter-Glo® assay (Promega).

Assay [14] has as its system MOLM-13. Kind of assay: In vitro ADCC with PBMC effector cells. The assay is classed as cell-based. The note with it: PBMC effector cells at ratio 50:1, 6 hours. As to the method: as §4
Assay [15] deals with MOLM-16. Briefly: In vitro ADCC with PBMC effector cells. The assay is classed as cell-based. As to conditions: PBMC effector cells at ratio 50:1, 6 hours. Here is the method: as §4
The test system of assay [16] is MV-4-11. Briefly: In vitro ADCC with PBMC effector cells. The assay is classed as cell-based. The note with it: PBMC effector cells at ratio 50:1, 6 hours. Here is the method: as §4
Assay [17] concerns NB4. Briefly: In vitro ADCC with PBMC effector cells. The assay is classed as cell-based. As to conditions: PBMC effector cells at ratio 50:1, 6 hours. Here is the method: as §4
Assay [18] has as its system THP-1. Kind of assay: In vitro ADCC with PBMC effector cells. As to conditions: PBMC effector cells at ratio 50:1, 6 hours. The assay is classed as cell-based. Here is the method:
as §4

For assay [19], the system named is AML cell lines. Briefly: Apoptosis, summary over AML cell lines. The assay is classed as cell-based. As to the method:
as §1, §2

Assay [20] relates to AML cell lines. Kind of assay: CDC, summary over AML cell lines. The assay is classed as cell-based. Here is the method: as §3
The test system of assay [21] is AML cell lines. Kind of assay: ADCC, summary over AML cell lines. The assay is classed as cell-based. Here is the method:
as §4

The next assay has as its system AML 3406 model. Briefly: Patient-derived xenograft (PDX) AML 3406 model, leukemic burden. The assay is classed as in vivo, NSG mice. As to conditions: for tumor burden (% leukemic CD45+CD33+ cells): i.p. 10 mg/kg once a week, 5 weeks. The source says:
(§5) Patient tumor models AML 3406, AML 7577 and AML 8096 were used in the study.
AML3406 model: Patient tumor cells were positive for FLT-3ITD. Patient has a history of polycythemia versa, and received idarubicin/cytrabine for induction chemotherapy. Patient also received Hudrea® (hydroxyurea).
(§6) 5 million AML MNCs were T-cell depleted and transplanted via tail vein into 6-8 weeks old sub-lethally irradiated NSG mice (n=10 per group). 4 to 6 weeks post-engraftment, bone marrow aspirates were collected from each mouse and were analyzed by flow cytometry to determine the level of leukemia engraftment (% of human CD45^+CD33^+/− cells). Based on engraftment levels, mice were randomized and conditioned with either IgG1 or daratumumab (DARA, pre-dosing at 0.5 mg/kg). 24 hours later, mice were untreated (Ctrl) or treated for 5 consecutive weeks with DARA or IgG1 alone (i.p, 10 mg/kg once a week). 2-3 days after the last treatment, mice were sacrificed and bone marrow, spleen, peripheral blood and plasma were collected for analysis. Flow cytometry was performed to assess percentage of human CD45^+CD33^+ cells in the BM, SPL and PB of 3 AML patients engrafted in NSG mice (AML 3406 model: FIG. 2A; AML 7577 model: FIG. 2B, AML 8096 model: FIG. 2C) and absolute number of the human CD45^+CD33^+ cells in bone marrow (FIG. 3A), spleen (FIG. 3B) and peripheral blood (FIG. 3C) of one representative AML patient.
(In general: In xenograft studies the graft and the host belong to different species.)

The test system of another assay is AML 7577 model. Briefly: Patient-derived xenograft (PDX) AML 7577 model, leukemic burden. The note with it: peripheral blood, i.p. 10 mg/kg once a week, 5 weeks. The assay is classed as in vivo, NSG mice.
Description: as §5
AML 7577 model: Leukemic cells were collected from a person with AML (FAB subtype M5). Patient had normal karyotype and following mutations: IDH2(R140Q); FLT3-ITD; DNMT3A R882H, NPM1, CEBPA insertion (SNP). Patient has a history of polycythemia versa, and received idarubicin/cytrabine for induction chemotherapy. Patient also received Hudrea® (hydroxyurea).
as §6, with “Flow cytometry was performed to assess percentage of human CD45^+CD33^+ cells in the BM, SPL and PB of 3 AML patients engrafted in NSG mice (AML 3406 model: FIG. 2A; AML 7577 model: FIG. 2B, AML 8096 model: FIG. 2C) and absolute number of the human CD45^+CD33^+ cells in bone marrow (FIG. 3A), spleen (FIG. 3B) and peripheral blood (FIG. 3C) of one representative AML patient.” left out

The test system of the next assay is AML 8096 model. Kind of assay: Patient-derived xenograft (PDX) AML 8096 model, leukemic burden. The assay is classed as in vivo, NSG mice. As to conditions: spleen, i.p. 10 mg/kg once a week, 5 weeks.
Description: as §5
AML 8096 model: Leukemic cells were collected from a person with AML (FAB subtype M2). White blood cell count was 20×10e^9/L, from which 70% were blast cells. Patient had normal karyotype with wild type TP53, FLT3, NPM1, and insertion 570-587, 3GCACCC>4GCACCC in CEBPA exon1. Patient has a history of polycythemia versa, and received idarubicin/cytrabine for induction chemotherapy. Patient also received Hudrea® (hydroxyurea).
as §6, with “Flow cytometry was performed to assess percentage of human CD45^+CD33^+ cells in the BM, SPL and PB of 3 AML patients engrafted in NSG mice (AML 3406 model: FIG. 2A; AML 7577 model: FIG. 2B, AML 8096 model: FIG. 2C) and absolute number of the human CD45^+CD33^+ cells in bone marrow (FIG. 3A), spleen (FIG. 3B) and peripheral blood (FIG. 3C) of one representative AML patient.” left out

The test system of assay [22] is CD38 on leukemia blasts (CD45+CD33+ positive cells). Kind of assay: CD38 expression on leukemic blasts in PDX AML 3406 model. The assay is classed as in vivo, NSG mice. As to conditions: after 5 weeks of treatment. Here is the method: as §6
Effect of daratumumab on CD38 expression on leukemic blasts was assessed in one representative AML model described in Example 3 after 5 weeks of treatment with daratumumab or isotype control using PE-labeled anti-CD38 antibody (R&D Systems).

Assay [23] deals with NB-4 AML cell line. Briefly: CD38 surface expression by FACS with PE-labeled anti-CD38 antibody. The assay is classed as cell-based. As to conditions: 24 hours; for PE-CD38 molecules/cell: NB-4. As to the method: Effect of ATRA on CD38 surface expression was assessed in NB-4 AML cell line. Tumor cells were incubated at 37° C. for 24 hours in the presence or absence of 10 nM or 100 nM ATRA. After 24 hour incubation, the cells were harvested and stained for CD38. ATRA induced ˜10-fold increase in CD38 receptors in the NB-4 cell line. CD38 surface expression was assessed using FACS using PE-labeled anti-CD38 antibody (R&D Systems) (Table 2).

With daratumumab, the Apoptosis in the assay with ML-2 [1] is listed as 5%; in the assay on MOLM-13 [2] it was 10-15%; in the assay with MOLM-16 [3] it was 20-30%; with MV-4-11 [4] it was 10-12%; with NB-4 AML cell line [5] (NB4, antibody 1 μg/ml, 22 hours, early and late apoptosis), 18%; in the assay on THP-1 [6], 5-7%. Further, the daratumumab-induced apoptosis in the assay with NB-4 AML cell line [5] (with crosslinking antibody (FIG. 1B)) stood at 18.3%; with NB-4 AML cell line [5] (without crosslinking antibody (FIG. 1A)), 19.2%. Moreover, the CDC with ML-2 [7] was found to be 0%; in the assay with MOLM-13 [8], 0%; with MOLM-16 [9], 5%; with MV-4-11 [10], 0%; in the assay on NB4 [11], 4%; with THP-1 [12], 5%. For the same compound, the CDC entry in the assay on AML cell lines [20] is recorded as “did not induce significant ADCC or CDC”. The ADCC worked out at 6.30% with ML-2 [13]; 9.40% in the assay with MOLM-13 [14]; 18.20% in the assay on MOLM-16 [15]; 2.30% in the assay with MV-4-11 [16]; 18.30% with NB4 [17]; 11.30% with THP-1 [18]. Moreover, the ADCC entry in the assay with AML cell lines [21] was “did not induce significant ADCC or CDC”. Moreover, the “AML cell killing by apoptosis” value with AML cell lines [19] is “induced AML cell killing by apoptosis”. Also, in the assay on AML 3406 model (bone marrow, Ctrl vs Dara), the “total leukemic burden (number of CD45+CD33+ cells per four bones)” value is given as “no significant difference”. The “total leukemic burden (number of CD45+CD33+ cells per μl blood)” value in the assay on AML 3406 model (peripheral blood) was “significantly reduced total leukemic burden”. For the same compound, the “tumor burden (% leukemic CD45+CD33+ cells)” value in the assay with AML 3406 model (peripheral blood), with AML 3406 model (spleen), in the assay on AML 7577 model and in the assay on AML 8096 model was “reduced tumor burden” each time. Also, the “total leukemic burden (number of CD45+CD33+ cells per spleen)” value in the assay on AML 3406 model (spleen) is “significantly reduced total leukemic burden”. For the same compound, the “percentage of CD38-positive AML blasts” value in assay [22] (bone marrow, spleen and peripheral blood (FIG. 4B)) was “reduced”. Also, the “expression of CD38 on leukemia blasts” value in [22] (bone marrow), in [22] (peripheral blood) and in assay [22] (spleen) was “reduced expression of CD38” throughout.

With `CC1=C(/C=C/C(C)=C/C=C/C(C)=C/C(=O)O)C(C)(C)CCC1` [ATRA, all-trans-retinoic acid], the PE-CD38 molecules/cell with NB-4 AML cell line [23] (10 nM ATRA) was determined as 185737 molecules/cell; in the assay on NB-4 AML cell line [23] (100 nM ATRA) it was 210570 molecules/cell. In the assay on NB-4 AML cell line [23] (NB-4 cell line, 10 nM or 100 nM ATRA), the “increase in CD38 receptors” value is recorded as roughly 10 fold.

The values above are taken from patent US12286474B2, “Anti-CD38 antibodies for treatment of acute myeloid leukemia” (Janssen Biotech, Inc., priority 2014, dated 2025).
